Converted amounts (≈) assume the structure as drawn. Where two headings read alike, the source gives them in different places.

The test system of data set [1] is human umbilical vein endothelial cells HUVEC (ATCC CRL-1730). The data set is described as follows: Growth inhibition (antiproliferative effect) of HUVEC. The format is cell-based. The note with it: read-out: antiproliferative GI50, HUVEC.
Description: (§2) Compounds were assayed against human umbilical vein endothelial cells HUVEC (ATCC CRL-1730) and human chronic myeloid leukemia cells K-562 (DSM ACC 10) for their antiproliferative effects (GI50) and against human cervix carcinoma cells HeLa (DSM ACC 57) for their cytotoxic effects (CC50) as previously described (Scherlach, K., Partida-Martinez, L. P., Dahse, H. M. & Hertweck, C. Antimitotic rhizoxin derivatives from a cultured bacterial endosymbiont of the rice pathogenic fungus Rhizopus microsporus. Journal of the American Chemical Society 128, 11529-11536 (2006)).
Data set [2] in a line: Cytotoxicity against HeLa. The note with it: human, HeLa cells (human cervix carcinoma, DSM ACC 57).
Description: as §2
Data set [3] relates to human chronic myeloid leukemia cells K-562 (DSM ACC 10). The data set is described as follows: Growth inhibition (antiproliferative effect) of K-562. The format is cell-based.
Description: as §2
The subject of data set [4] is Mycobacterium vaccae 10670. Nature of the data set: Antimicrobial activity (MIC), test strain Mycobacterium vaccae 10670. The format is cell-based. An excerpt: Antimicrobial (MIC value [μM]), cytotoxic (CC50 [μM] for HeLa) and antiproliferative (GI50 [μM] for HUVEC, K-562, HT-29 and MEL-HO) activities of chartreusin and its derivatives. Test strain: Mycobacterium vaccae 10670.

Data set [5] relates to human HT-29 colon adenocarcinoma cells (ACC 299). Nature of the data set: Growth inhibition of HT-29 in the presence or absence of light. The format is cell-based. The procedure: (§1) The human HT-29 colon adenocarcinoma cells (ACC 299) and the human MEL-HO (ACC 62) melanoma cells were grown as previously described (Ueberschaar, N.; Dahse, H.-M.; Bretschneider, T.; Hertweck, C. Angew. Chem. Int. Ed. 2013, 52, 6185-6189).

Data set [6] concerns methicillin-resistant Staphylococcus aureus (MRSA). Nature of the data set: Antibiotic activity against MRSA. The format is cell-based.
The nature of data set [7]: in vitro. The note with it: human.
Description: as §2
Data set [8] has as its system human MEL-HO (ACC 62) melanoma cells. Nature of the data set: Growth inhibition of MEL-HO in the presence or absence of light. The format is cell-based. How it is done:
as §1

Data set [9] concerns human cervix carcinoma cells HeLa (DSM ACC 57). The data set is described as follows: Cytotoxicity against HeLa. The note with it: for CC50: read-out: cytotoxic CC50, HeLa, HeLa.
Description: as §2
The mark [10] stands for this setting: Homo sapiens, K562; read-out: antiproliferative GI50, K-562.
Where [11] appears, read: Mycolicibacterium vaccae, Test strain: Mycobacterium vaccae 10670, read-out: Antimicrobial MIC value, Mycobacterium vaccae.
The mark [12] stands for this setting: Homo sapiens, HT-29, 8 h, read-out: antiproliferative GI50, HT-29, 420 nm, 3 × 8 h, HT-29, 420 nm, 3 × 8 h.
The mark [13] stands for this setting: Homo sapiens, HT-29, read-out: GI50 with light, HT-29, HT-29, with light (blue LED).
[14] abbreviates: Homo sapiens, HT-29, read-out: GI50 without light, HT-29, HT-29, without light (absence of light).
The mark [15] stands for this setting: Homo sapiens, HT-29, read-out: antiproliferative GI50, HT-29, w/o light, HT-29, w/o light.
Setting [16] is: read-out: GI50 without light, HT-29, HT-29, without light (absence of light).
Where [17] appears, read: Homo sapiens, K562, read-out: antiproliferative GI50, K-562.
[18] abbreviates: 8 h, read-out: antiproliferative GI50, Mel-HO, 420 nm, 3 × 8 h.
[19] abbreviates: read-out: antiproliferative GI50, Mel-HO, w/o light.
[20] abbreviates: Mycolicibacterium vaccae, 10670, read-out: Antimicrobial MIC value, Mycobacterium vaccae.
Where [21] appears, read: K-562; read-out: antiproliferative GI50, K-562.
Where [22] appears, read: Test strain: Mycobacterium vaccae 10670, read-out: Antimicrobial MIC value, Mycobacterium vaccae.

In the case of `COC1[C@@H](O)C(C)O[C@H](OC2[C@H](Oc3cccc4c(O)c5c(=O)oc6ccc(O)c7c(=O)oc(c34)c5c67)OC(C)[C@H](O)[C@@H]2O)[C@@H]1O` (stereo partly shown), the GI50 amounted to 35 µM in [1] (Homo sapiens) and 4.82 µM in data set [3] (setting [10]). This compound also showed a CC50 in data set [2] of 25.5 µM. The MIC (commonly the lowest concentration that inhibits growth of the organism) in data set [4] (setting [11]) was determined as 2.4 µM (≈ 1.54 µg/mL).

Take `C#Cc1cc2oc(=O)c3c(O)c4cccc(O[C@@H]5OC(C)[C@H](O)[C@H](O)C5O[C@H]5OC(C)[C@H](O)C(OC)[C@H]5O)c4c4oc(=O)c(c1)c2c34` (stereo partly shown) [(1→2)Abeo-ethinylchartreusin, (1→2)-Abeo-ethynylchartreusin]: the GI50 was 7.84 µM in data set [1] (Homo sapiens); 1.69 µM in [5] (setting [12]); 1.7 µM in data set [5] (setting [13]); 7 to 9.4 µM in [5] (setting [14]); 8.61 µM in data set [5] (setting [15]); 8.6 µM in data set [5] (setting [16]). For the same compound, the GI50 in data set [3] (setting [17]) stood at 3.23 µM; in data set [8] (setting [18]), 1.38 µM; in [8] (setting [19]), 2 µM. Also, in data set [5] (HT-29, with light vs without light), the “activity higher in the presence of light, HT-29” value was found to be 5 fold. Also, the “antibiotic activity against MRSA relative to chartreusin and ciprofloxacin” value in data set [6] is “as active as the natural product and are even more potent than the reference antibiotic ciprofloxacin”. In data set [7], this compound displayed a CC50 of 13.4 µM. The MIC in [4] (setting [11]) worked out at 19.2 µM (≈ 12.5 µg/mL).

For `COC1[C@@H](O)C(C)O[C@H](OC2[C@H](Oc3cccc4c(O)c5c(=O)oc6cc(Br)cc7c(=O)oc(c34)c5c67)OC(C)[C@H](O)[C@@H]2O)[C@@H]1O` (stereo partly shown) [(1→2)Abeobromchartreusin, (1→2)-Abeo-bromochartreusin], the values for the GI50 in data set [1] (Homo sapiens) and in data set [3] (setting [10]) were 25.1 µM and 8.65 µM, respectively. In addition, in data set [2], the CC50 stood at 26.1 µM. For the same compound, the MIC in [4] (setting [11]) was 17.7 µM (≈ 12.5 µg/mL).

On to `COC1[C@@H](O)C(C)O[C@H](OC2[C@H](Oc3cccc4c(O)c5c(=O)oc6cc(C)cc7c(=O)oc(c34)c5c67)OC(C)[C@H](O)[C@@H]2O)[C@@H]1O` (stereo partly shown) [(1→2)Abeochartreusin, (1→2)-Abeo-chartreusin], for which the figures for the GI50 in data set [1] (Homo sapiens) and in data set [3] (setting [10]) were 5.78 µM and 2.03 µM, respectively. In [2], this compound yielded a CC50 of 14.2 µM. The MIC in data set [4] (setting [11]) was determined as 4.87 µM (≈ 3.12 µg/mL).

As to `CCc1cc2oc(=O)c3c(O)c4cccc(O[C@@H]5OC(C)[C@H](O)[C@H](O)C5O[C@H]5OC(C)[C@H](O)C(OC)[C@H]5O)c4c4oc(=O)c(c1)c2c34` (stereo partly shown) [(1→2)Abeohomochartreusin, (1→2)-Abeo-homochartreusin], the GI50 in [1] (Homo sapiens) worked out at 26.6 µM; in [3] (setting [10]) it was 11.6 µM. The compound also showed a CC50 in data set [2] of 58.1 µM. The MIC in data set [4] (setting [11]) came out at 19.1 µM (≈ 12.5 µg/mL).

For `C=Cc1cc2oc(=O)c3c(O)c4cccc(O[C@@H]5OC(C)[C@H](O)[C@H](O)C5O[C@H]5OC(C)[C@H](O)C(OC)[C@H]5O)c4c4oc(=O)c(c1)c2c34` (stereo partly shown) [(1→2)Abeovinylchartreusin, (1→2)-Abeo-vinylchartreusin], the GI50 was 16.9 µM in data set [1] (Homo sapiens); 3.06 µM in data set [5] (setting [12]); 3.1 µM in data set [5] (setting [13]); 7 to 9.4 µM in data set [5] (setting [14]); 9.35 µM in [5] (setting [15]); 9.4 µM in data set [5] (setting [16]). In addition, the results for the GI50 in data set [3] (setting [17]), in [8] (setting [18]) and in data set [8] (setting [19]) were 4.9 µM, 0.48 µM and 1.03 µM, respectively. In [7], the CC50 was found to be 33.7 µM. The MIC in data set [4] (setting [11]) is 19.2 µM (≈ 12.5 µg/mL).

Regarding `O=C(Oc1c2cccc(OC(=O)N3CCC(N4CCCCC4)CC3)c2c2oc(=O)c3c(Br)ccc4oc(=O)c1c2c43)N1CCC(N2CCCCC2)CC1` [Bromchartarin-1,10 bis-1,4′-bipiperidine-1′-carboxylate], the GI50 in data set [1] (Homo sapiens) turned out to be 10 µM; in [3] (setting [10]), 9.27 µM. In [2], this compound showed a CC50 of 20.2 µM. For the same compound, the MIC in data set [4] (setting [20]) was > 100 µM.

`COC1[C@@H](O)C(C)O[C@H](OC2[C@H](Oc3cccc4c(O)c5c(=O)oc6ccc(Br)c7c(=O)oc(c34)c5c67)OC(C)[C@H](O)[C@@H]2O)[C@@H]1O` (stereo partly shown) [Bromchartreusin, 1-Bromochartreusin]: the GI50 in data set [1] (Homo sapiens) was found to be 65.8 µM; in data set [3] (setting [10]), 8.79 µM. Besides, the CC50 in [2] turned out to be 48.2 µM. Besides, the minimal inhibitory concentration (MIC) in data set [4] (setting [11]) came to 8.9 µM (≈ 6.28 µg/mL).

Consider `Cc1ccc2oc(=O)c3c(OC(=O)N4CCC(N5CCCCC5)CC4)c4cccc(OC(=O)N5CCC(N6CCCCC6)CC5)c4c4oc(=O)c1c2c34` [Chartarin-1,10 bis-1,4′-bipiperidine-1′-carboxylate], for which the GI50 in [1] (Homo sapiens) was found to be 4.43 µM; in [3] (setting [10]), 3.18 µM. In [2], the CC50 was determined as 10.1 µM. Besides, in [4] (setting [20]), the MIC was > 100 µM.

In the case of `C#Cc1ccc2oc(=O)c3c(O)c4cccc(O[C@@H]5OC(C)[C@H](O)[C@H](O)C5O[C@H]5OC(C)[C@H](O)C(OC)[C@H]5O)c4c4oc(=O)c1c2c34` (stereo partly shown) [Ethinylchartreusin, Ethynylchartreusin], the GI50 in [1] (Homo sapiens) was > 77 µM; in [5] (Homo sapiens, HT-29, 8 h, HT-29, 420 nm, 3 × 8 h, read-out: antiproliferative GI50, HT-29, 420 nm, 3 × 8 h) it was 26.9 µM; in data set [5] (Homo sapiens, HT-29, HT-29, w/o light, read-out: antiproliferative GI50, HT-29, w/o light), 33.2 µM; in data set [3] (setting [10]) it was 64.1 µM. Also, the CC50 in [2] was > 77 µM. Also, the MIC in [4] (setting [11]) is 19.2 µM (≈ 12.5 µg/mL).

Consider `CCc1ccc2oc(=O)c3c(O)c4cccc(O[C@@H]5OC(C)[C@H](O)C(O)C5O[C@H]5OC(C)[C@H](O)C(OC)C5O)c4c4oc(=O)c1c2c34` (stereo partly shown) [Homochartreusin], for which the GI50 turned out to be 7.18 µM in data set [1] (Homo sapiens) and 2.14 µM in [3] (setting [10]). Besides, in data set [9] (compared with Chartreusin, HUVEC GI50 similarly low, HeLa CC50 different), the “selectivity (GI50 HUVEC versus cytotoxic activity HeLa)” value is listed as “higher selectivity”. This compound displayed a CC50 in [2] of 23.1 µM. In data set [4] (setting [11]), the MIC is 9.6 µM (≈ 6.28 µg/mL).

For `COc1ccc2oc(=O)c3c(O)c4cccc(O[C@@H]5OC(C)[C@H](O)[C@H](O)C5O[C@H]5OC(C)[C@H](O)C(OC)[C@H]5O)c4c4oc(=O)c1c2c34` (stereo partly shown) [Methoxychartreusin], the GI50 in [1] (Homo sapiens) and in [3] (setting [10]) was > 76 µM in each case. Moreover, in [2], the CC50 was > 76 µM. Further, in data set [4] (setting [11]), the MIC came to 76 µM (≈ 49.9 µg/mL).

Take `COC1[C@@H](O)C(C)O[C@H](OC2[C@H](Oc3cccc4c(O)c5c(=O)oc6cccc7c(=O)oc(c34)c5c67)OC(C)[C@H](O)[C@@H]2O)[C@@H]1O` (stereo partly shown) [Norchartreusin]: the values for the GI50 in data set [1] (Homo sapiens) and in [3] (setting [10]) were 79.8 µM and 31.6 µM, respectively. Moreover, the CC50 in data set [2] stood at 70.7 µM. In addition, the MIC in data set [4] (setting [11]) is 2.5 µM (≈ 1.57 µg/mL).

For the compound “Norchartarin-1,10 bis-1,4′-bipiperidine-1′-carboxylate”, the GI50 in data set [1] turned out to be 52.3 µM; in data set [3] (setting [21]) it was 52.2 µM. The CC50 in data set [9] was > 71 µM. In addition, in data set [4] (setting [22]), the MIC was >100 µM.

Consider “vinylchartarin-1,10 bis-1,4′-bipiperidine-1′-carboxylate”, for which the GI50 in [1] and in data set [3] (setting [21]) was > 68 µM each time. Also, the CC50 in [9] was > 68 µM. Moreover, in data set [4] (setting [22]), the MIC is listed as >100 µM.

The values above are taken from patent publication US9522930B2, “Chartreusin analogues” (Leibniz-Institut Für Naturstoff-Forschung Und …, priority 2012, dated 2016).
